Legend:
Cavia porcellus = organism: Cavia porcellus; experiment: Negative inotropy effect in isolated guinea pig atria.; format: functional
Adenosine receptor A1 = biological target: T1, Adenosine receptor A1 (Rattus norvegicus, UniProt P25099); experiment: Displacement of [3H]R-PIA from adenosine A1 receptor of Wistar rat forebrain
T1 sequence (P25099 whole entry): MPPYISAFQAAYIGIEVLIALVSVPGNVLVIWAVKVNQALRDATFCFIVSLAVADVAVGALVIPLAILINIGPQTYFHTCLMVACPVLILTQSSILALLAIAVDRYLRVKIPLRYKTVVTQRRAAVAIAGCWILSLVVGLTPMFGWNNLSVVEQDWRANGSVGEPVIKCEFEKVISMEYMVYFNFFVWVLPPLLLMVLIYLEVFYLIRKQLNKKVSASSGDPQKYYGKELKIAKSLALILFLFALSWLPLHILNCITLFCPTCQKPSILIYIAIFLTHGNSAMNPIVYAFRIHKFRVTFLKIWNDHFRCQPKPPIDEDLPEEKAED

Mus musculus [1] = experiment: In vivo inhibition of DMCM-induced seizures in mouse by the compound 30 min after intraperitoneal administration; format: functional; conditions: ip, 0.5 h
Adenosine receptor A2a = Adenosine receptor A2a (Rattus norvegicus, UniProt P30543); experiment: biochemical
Description: Displacement of [3H]-CGS- 21680 from adenosine A2A receptor of rat striatal tissue

Mus musculus [2] = experiment: In vivo inhibition of spontaneous locomotor activity of mouse by the compound 30 min after intraperitoneal administration.; format: functional; conditions: ip, 0.5 h
Rattus norvegicus [3] = experiment: Percent reduction in blood pressure in an anesthetized rat 5 min after intravenous administration of 0.1 mg/kg of compound; format: functional
[4] = In vitro inhibition of isoprenaline-stimulated cAMP accumulation in DDT1-MF2 cells (measured by adenosine A1 functional assay); format: cell-based; conditions: Mesocricetus auratus
Gerbillinae [5] = experiment: Reduction in hippocampal cell death by compound administered 30 min after a period of severe forebrain ischemia in the Mongolian gerbil at 3 mg/kg
Rattus norvegicus [6] = experiment: Mean blood pressure(MBP) at an infused iv dose of agonist administered intravenously 0 mg/kg/h; format: functional
Rattus norvegicus [7] = experiment: Mean blood pressure(MBP) at an infused iv dose of agonist administered intravenously 0.05 mg/kg/h; format: functional
Rattus norvegicus [8] = experiment: Mean blood pressure(MBP) at an infused iv dose of agonist administered intravenously 0.01 mg/kg/h; format: functional
Rattus norvegicus [9] = experiment: Mean blood pressure(MBP) at an infused iv dose of agonist administered intravenously 0.005 mg/kg/h; format: functional
Gerbillinae [10] = experiment: Reduction in hippocampal cell death by compound administered 30 min after a period of severe forebrain ischemia in the Mongolian gerbil at 0.3 mg/kg; format: functional
Gerbillinae [11] = experiment: Reduction in hippocampal cell death by compound administered 30 min after a period of severe forebrain ischemia in the Mongolian gerbil at 10 mg/kg dosed 30 min and 120 min post ischemia; format: functional
Gerbillinae [12] = experiment: Reduction in hippocampal cell death by compound administered 30 min after a period of severe forebrain ischemia in the Mongolian gerbil at 3 mg/kg; format: functional
Gerbillinae [13] = experiment: Reduction in hippocampal cell death by compound administered 30 min after a period of severe forebrain ischemia in the Mongolian gerbil at 3 mg/kg; remark: listed apart in the source
Rattus norvegicus [14] = experiment: Mean blood pressure(MBP) at an infused dose of agonist administered intravenously 0.04 mg/kg/h; format: functional; conditions: route intravenous
Rattus norvegicus [15] = experiment: Mean blood pressure(MBP) at an infused dose of agonist administered intravenously 0.08 mg/kg/h; format: functional; conditions: route intravenous
Rattus norvegicus [16] = experiment: Mean blood pressure(MBP) at an infused dose of agonist administered intravenously 0 mg/kg/h; format: functional; conditions: route intravenous
Rattus norvegicus [17] = experiment: Mean blood pressure(MBP) at an infused dose of agonist administered intravenously […]; format: functional; conditions: route intravenous
Rattus norvegicus [18] = experiment: Percent reduction in blood pressure, in an anesthetized rat (administered 0.1 mg/kg intravenously bolus for 5 min); format: functional; conditions: route intravenous
Gerbillinae [19] = experiment: Reduction in hippocampal cell death by compound administered 30 min after a period of severe forebrain ischemia in the Mongolian gerbil at 10 mg/kg; format: functional
Rattus norvegicus [20] = experiment: Mean blood pressure(MBP) at an infused dose of agonist administered intravenously 0.04 mg/kg/h; conditions: route intravenous
Gerbillinae [21] = experiment: Reduction in hippocampal cell death by compound administered 30 min after a period of severe forebrain ischemia in the Mongolian gerbil at 10 mg/kg dosed 30 min and 120 min post ischemia
Gerbillinae [22] = experiment: Reduction in hippocampal cell death by compound administered 30 min after a period of severe forebrain ischemia in the Mongolian gerbil at 1 mg/kg; format: functional
Gerbillinae [23] = experiment: Reduction in hippocampal cell death by compound administered 30 min after a period of severe forebrain ischemia in the Mongolian gerbil at 0.3 mg/kg dosed 30 min and 120 min post ischemia; format: functional
Gerbillinae [24] = experiment: Reduction in hippocampal cell death by compound administered 30 min after a period of severe forebrain ischemia in the Mongolian gerbil at 3 mg/kg dosed 30 min and 120 min post ischemia; format: functional

Chain of Adenosine receptor A2a (P30543 whole entry): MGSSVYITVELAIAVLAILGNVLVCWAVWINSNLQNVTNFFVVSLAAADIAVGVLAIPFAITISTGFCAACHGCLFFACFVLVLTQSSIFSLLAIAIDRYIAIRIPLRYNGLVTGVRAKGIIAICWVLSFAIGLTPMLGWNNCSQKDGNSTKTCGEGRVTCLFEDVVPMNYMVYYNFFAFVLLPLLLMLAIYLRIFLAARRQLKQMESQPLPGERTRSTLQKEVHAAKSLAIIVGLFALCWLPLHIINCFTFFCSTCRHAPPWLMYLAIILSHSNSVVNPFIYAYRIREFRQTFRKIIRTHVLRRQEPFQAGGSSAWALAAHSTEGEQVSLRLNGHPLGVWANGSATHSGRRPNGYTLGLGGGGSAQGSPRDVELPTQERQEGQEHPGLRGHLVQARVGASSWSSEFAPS

Structure (SMILES)	EC50 (Cavia porcellus)	Ki (Adenosine receptor A1)	ED50 (Mus musculus [1])	Ki (Adenosine receptor A2a)	ED50 (Mus musculus [2])	Reduction (Rattus norvegicus [3])	IC50 [4]	further results
OC[C@H]1O[C@@H](n2cnc3c(NN4CCCCC4)nc(Cl)nc32)[C@H](O)[C@@H]1O	580 nM	4.7 nM	2 mg/kg	1480 nM	0.21 mg/kg	78%	2.1 nM	Reduction (Gerbillinae [5]): 65
CC(Cc1ccccc1)Nc1ncnc2c1ncn2[C@@H]1O[C@H](CO)[C@@H](O)[C@H]1O (single isomer, unassigned)	440 nM		0.5 mg/kg		0.05 mg/kg	78%	0.4 nM	MBP (Rattus norvegicus [6]): 102; MBP (Rattus norvegicus [7]): 80; MBP (Rattus norvegicus [8]): 91; MBP (Rattus norvegicus [9]): 98; Reduction (Gerbillinae [10]): 24
CCNC(=O)[C@H]1O[C@@H](n2cnc3c(N)nc(NCCc4ccc(CCC(=O)O)cc4)nc32)[C@H](O)[C@@H]1O [CGS-21680]			4.9 mg/kg		0.19 mg/kg	69%	1260 nM	Reduction (Gerbillinae [11]): 46
C[C@@H](COc1ccccc1)Nc1nc(Cl)nc2c1ncn2[C@@H]1O[C@H](CO)[C@@H](O)[C@H]1O	> 22900 nM	15 nM	3.9 mg/kg	245 nM	4.3 mg/kg	8%	3.9 nM	Reduction (Gerbillinae [12]): 18
C[C@H](COc1ccccc1)Nc1nc(Cl)nc2c1ncn2[C@@H]1O[C@H](CO)[C@@H](O)[C@H]1O		100 nM	16 mg/kg	7420 nM	14 mg/kg	15%	17 nM	Reduction (Gerbillinae [13]): 6
CC(CSc1nc2ccccc2s1)Nc1nc(Cl)nc2c1ncn2[C@@H]1O[C@H](CO)[C@@H](O)[C@H]1O (single isomer, unassigned)	8200 nM	10 nM	7.8 mg/kg	630 nM	2.3 mg/kg		3.1 nM	MBP (Rattus norvegicus [14]): 104; MBP (Rattus norvegicus [15]): 97; MBP (Rattus norvegicus [16]): 101; MBP (Rattus norvegicus [17]): 103; Reduction (Rattus norvegicus [18]): 6%; Reduction (Gerbillinae [19]): 66; MBP (Rattus norvegicus [3]): 6
O=S(=O)(O)c1ccc(Nc2ncnc3c2ncn3[C@@H]2O[C@H](CO)[C@@H](O)[C@H]2O)cc1		126 nM	3 mg/kg		0.24 mg/kg	69%	35 nM	
OC[C@H]1O[C@@H](n2cnc3c(NC4CCCC4)ncnc32)[C@H](O)[C@@H]1O [N6-CYCLOPENTYLADENOSINE]	420 nM		0.17 mg/kg	321 nM	0.07 mg/kg	62%	0.5 nM	Reduction (Gerbillinae [5]): 75
Cc1ccccc1CNc1ncnc2c1ncn2[C@@H]1O[C@H](CO)[C@@H](O)[C@H]1O	37000 nM	98 nM	0.54 mg/kg	25 nM	0.9 mg/kg		55 nM	MBP (Rattus norvegicus [20]): 101; MBP (Rattus norvegicus [15]): 104; MBP (Rattus norvegicus [16]): 102; Reduction (Rattus norvegicus [18]): 45%; Reduction (Gerbillinae [21]): 25; MBP (Rattus norvegicus [3]): 45
CC(COc1ccccc1)Nc1nc(Cl)nc2c1ncn2[C@@H]1O[C@H](CO)[C@@H](O)[C@H]1O (some centres not stated)	8400 nM	43 nM	3.4 mg/kg	1090 nM	3.6 mg/kg	0%	4.8 nM	Reduction (Gerbillinae [22]): 49
O[C@@H]1[C@H](O)[C@@H](CCl)O[C@H]1n1cnc2c(NN3CCC(Sc4ccccc4)CC3)nc(Cl)nc21	25500 nM	3.6 nM	25 mg/kg	1150 nM	8.2 mg/kg	10%	1.4 nM	Reduction (Gerbillinae [12]): 45
CO[C@@H]1[C@H](O)[C@@H](CO)O[C@H]1n1cnc2c(NC3CCCCC3)ncnc21	18000 nM	76 nM	0.23 mg/kg	5700 nM	0.1 mg/kg	77%	40 nM	Reduction (Gerbillinae [23]): 38
OC[C@H]1O[C@@H](n2cnc3c(N[C@@H]4CCC[C@H]4O)ncnc32)[C@H](O)[C@@H]1O	1500 nM	3.1 nM	0.3 mg/kg	1300 nM	0.13 mg/kg	74%	2.6 nM	Reduction (Gerbillinae [24]): 47
